What was measured:
[1] = target: 3',5'-cyclic-AMP phosphodiesterase 4D (Homo sapiens, UniProt Q08499); test: Inhibition of PDE4D2 catalytic domain (86 to 413 residues) (unknown origin) using [3H]-cAMP as substrate after 15 mins by liquid scintillation counting method
[2] = target: Dual specificity calcium/calmodulin-dependent 3',5'-cyclic nucleotide phosphodiesterase 1B (Homo sapiens, UniProt Q01064); test: Inhibition of PDE1B2 catalytic domain (10 to 487 residues) (unknown origin) using [3H]-cGMP/[3H]-cAMP as substrate after 15 mins by liquid scintillation counting method
Chain of Dual specificity calcium/calmodulin-dependent 3',5'-cyclic nucleotide phosphodiesterase 1B (Q01064 whole entry, the tested form may be a part): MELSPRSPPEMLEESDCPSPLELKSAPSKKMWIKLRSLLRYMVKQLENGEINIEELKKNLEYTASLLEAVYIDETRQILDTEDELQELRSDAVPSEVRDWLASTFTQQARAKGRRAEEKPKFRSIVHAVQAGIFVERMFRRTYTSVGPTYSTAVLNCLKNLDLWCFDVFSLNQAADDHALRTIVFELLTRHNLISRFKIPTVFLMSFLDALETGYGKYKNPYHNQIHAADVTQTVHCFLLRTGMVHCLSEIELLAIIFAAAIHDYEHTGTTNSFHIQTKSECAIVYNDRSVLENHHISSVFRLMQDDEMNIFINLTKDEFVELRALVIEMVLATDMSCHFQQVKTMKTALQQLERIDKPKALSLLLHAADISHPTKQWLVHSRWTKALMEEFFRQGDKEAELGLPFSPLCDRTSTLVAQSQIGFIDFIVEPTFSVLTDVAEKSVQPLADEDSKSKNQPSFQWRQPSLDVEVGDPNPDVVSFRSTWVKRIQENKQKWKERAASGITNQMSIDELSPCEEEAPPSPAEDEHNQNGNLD

Homo sapiens [3] = organism: Homo sapiens; test: Selectivity index, ratio of IC50 for PDE9A2 catalytic domain (181 to 506 residues) (unknown origin) to IC50 for PDE4D2 catalytic domain (86 to 413 residues) (unknown origin)
Homo sapiens [4] = organism: Homo sapiens; test: Selectivity index, ratio of IC50 for PDE5A1 catalytic domain (535 to 860 residues) (unknown origin) to IC50 for PDE4D2 catalytic domain (86 to 413 residues) (unknown origin)
Homo sapiens [5] = organism: Homo sapiens; test: Selectivity index, ratio of IC50 for PDE1B2 catalytic domain (10 to 487 residues) (unknown origin) to IC50 for PDE4D2 catalytic domain (86 to 413 residues) (unknown origin)
[6] = target: cGMP-dependent 3',5'-cyclic phosphodiesterase (Homo sapiens, UniProt O00408); test: Inhibition of PDE2A3 catalytic domain (222 to 904 residues) (unknown origin) using [3H]-cGMP/[3H]-cAMP as substrate after 15 mins by liquid scintillation counting method
Chain of cGMP-dependent 3',5'-cyclic phosphodiesterase (O00408 whole entry, the tested form may be a part): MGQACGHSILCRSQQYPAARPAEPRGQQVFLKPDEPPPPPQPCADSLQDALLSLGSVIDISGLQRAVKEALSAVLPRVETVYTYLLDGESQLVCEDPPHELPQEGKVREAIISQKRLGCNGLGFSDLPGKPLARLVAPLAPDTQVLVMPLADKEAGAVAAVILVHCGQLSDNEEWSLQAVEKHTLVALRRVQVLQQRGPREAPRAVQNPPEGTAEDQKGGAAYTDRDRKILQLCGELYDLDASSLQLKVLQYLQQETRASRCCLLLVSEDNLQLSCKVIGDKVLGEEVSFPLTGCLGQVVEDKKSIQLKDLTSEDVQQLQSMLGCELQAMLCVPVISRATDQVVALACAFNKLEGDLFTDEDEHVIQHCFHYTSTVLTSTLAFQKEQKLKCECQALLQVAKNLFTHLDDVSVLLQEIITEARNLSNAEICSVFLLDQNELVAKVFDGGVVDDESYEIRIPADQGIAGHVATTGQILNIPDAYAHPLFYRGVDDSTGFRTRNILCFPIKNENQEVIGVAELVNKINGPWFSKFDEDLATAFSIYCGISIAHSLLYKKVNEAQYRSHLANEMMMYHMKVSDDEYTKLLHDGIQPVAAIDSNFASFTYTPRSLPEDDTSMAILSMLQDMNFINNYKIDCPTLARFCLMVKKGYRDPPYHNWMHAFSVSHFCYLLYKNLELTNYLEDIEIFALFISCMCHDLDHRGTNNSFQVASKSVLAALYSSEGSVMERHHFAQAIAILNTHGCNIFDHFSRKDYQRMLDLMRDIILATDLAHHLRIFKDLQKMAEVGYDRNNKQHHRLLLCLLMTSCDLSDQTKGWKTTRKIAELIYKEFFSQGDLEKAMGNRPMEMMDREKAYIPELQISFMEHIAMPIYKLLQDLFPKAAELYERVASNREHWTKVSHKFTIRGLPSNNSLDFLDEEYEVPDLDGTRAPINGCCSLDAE

[7] = target: High affinity cGMP-specific 3',5'-cyclic phosphodiesterase 9A (Homo sapiens, UniProt O76083); test: Inhibition of PDE9A2 catalytic domain (181 to 506 residues) (unknown origin) using [3H]-cGMP/[3H]-cAMP as substrate after 15 mins by liquid scintillation counting method
Chain of High affinity cGMP-specific 3',5'-cyclic phosphodiesterase 9A (O76083 whole entry, the tested form may be a part): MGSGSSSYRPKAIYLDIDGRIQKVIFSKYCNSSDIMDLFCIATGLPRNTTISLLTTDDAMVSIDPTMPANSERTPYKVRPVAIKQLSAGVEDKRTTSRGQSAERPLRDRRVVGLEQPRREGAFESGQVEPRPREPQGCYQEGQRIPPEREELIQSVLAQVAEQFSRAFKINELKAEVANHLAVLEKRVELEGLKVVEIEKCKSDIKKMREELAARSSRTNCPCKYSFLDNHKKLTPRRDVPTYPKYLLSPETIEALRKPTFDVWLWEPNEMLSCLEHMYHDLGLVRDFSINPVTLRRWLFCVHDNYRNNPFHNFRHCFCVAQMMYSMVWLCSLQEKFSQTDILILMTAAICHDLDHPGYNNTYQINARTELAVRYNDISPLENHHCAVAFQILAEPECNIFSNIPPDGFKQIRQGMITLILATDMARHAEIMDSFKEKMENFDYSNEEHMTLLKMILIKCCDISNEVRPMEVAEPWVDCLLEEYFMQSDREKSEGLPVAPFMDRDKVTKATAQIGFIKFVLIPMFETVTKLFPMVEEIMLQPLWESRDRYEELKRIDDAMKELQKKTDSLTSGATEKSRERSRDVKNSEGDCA

Homo sapiens [8] = organism: Homo sapiens; test: Selectivity index, ratio of IC50 for PDE2A3 catalytic domain (222 to 904 residues) (unknown origin) to IC50 for PDE4D2 catalytic domain (86 to 413 residues) (unknown origin)
[9] = target: cGMP-specific 3',5'-cyclic phosphodiesterase (Homo sapiens, UniProt O76074); test: Inhibition of PDE5A1 catalytic domain (535 to 860 residues) (unknown origin) using [3H]-cGMP as substrate after 15 mins by liquid scintillation counting method
Homo sapiens [10] = organism: Homo sapiens; test: Selectivity index, ratio of IC50 for PDE10A2 catalytic domain (448 to 789 residues) (unknown origin) to IC50 for PDE4D2 catalytic domain (86 to 413 residues) (unknown origin)
[11] = target: cAMP and cAMP-inhibited cGMP 3',5'-cyclic phosphodiesterase 10A (Homo sapiens, UniProt Q9Y233); test: Inhibition of PDE10A2 catalytic domain (448 to 789 residues) (unknown origin) using [3H]-cGMP/[3H]-cAMP as substrate after 15 mins by liquid scintillation counting method
Chain of cAMP and cAMP-inhibited cGMP 3',5'-cyclic phosphodiesterase 10A (Q9Y233 whole entry, the tested form may be a part): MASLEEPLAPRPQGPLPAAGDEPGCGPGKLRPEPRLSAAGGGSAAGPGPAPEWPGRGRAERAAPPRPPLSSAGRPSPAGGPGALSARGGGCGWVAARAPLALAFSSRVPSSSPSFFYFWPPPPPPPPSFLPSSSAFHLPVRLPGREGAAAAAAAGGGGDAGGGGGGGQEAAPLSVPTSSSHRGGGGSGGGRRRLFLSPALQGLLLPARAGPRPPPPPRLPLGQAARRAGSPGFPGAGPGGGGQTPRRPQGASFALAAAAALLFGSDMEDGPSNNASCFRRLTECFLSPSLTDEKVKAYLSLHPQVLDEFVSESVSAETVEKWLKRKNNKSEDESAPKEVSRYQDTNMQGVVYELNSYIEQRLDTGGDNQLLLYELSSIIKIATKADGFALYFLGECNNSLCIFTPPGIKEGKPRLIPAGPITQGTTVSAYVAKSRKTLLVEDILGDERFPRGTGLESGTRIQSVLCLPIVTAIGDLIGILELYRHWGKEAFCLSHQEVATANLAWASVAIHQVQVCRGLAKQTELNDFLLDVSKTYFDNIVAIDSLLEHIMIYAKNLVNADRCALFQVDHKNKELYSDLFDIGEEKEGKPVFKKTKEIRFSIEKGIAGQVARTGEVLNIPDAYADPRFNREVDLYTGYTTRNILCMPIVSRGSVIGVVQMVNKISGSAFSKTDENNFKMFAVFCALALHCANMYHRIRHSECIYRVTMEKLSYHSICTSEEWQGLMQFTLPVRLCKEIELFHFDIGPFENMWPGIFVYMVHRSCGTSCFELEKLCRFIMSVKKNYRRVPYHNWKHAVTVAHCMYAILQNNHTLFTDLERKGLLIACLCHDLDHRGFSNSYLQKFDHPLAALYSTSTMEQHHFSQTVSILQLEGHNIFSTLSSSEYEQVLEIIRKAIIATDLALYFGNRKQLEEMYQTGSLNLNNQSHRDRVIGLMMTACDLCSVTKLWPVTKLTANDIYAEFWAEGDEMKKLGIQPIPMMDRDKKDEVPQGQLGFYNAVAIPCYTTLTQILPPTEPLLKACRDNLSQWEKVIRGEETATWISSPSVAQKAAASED

Chain of 3',5'-cyclic-AMP phosphodiesterase 4D (Q08499 whole entry, the tested form may be a part): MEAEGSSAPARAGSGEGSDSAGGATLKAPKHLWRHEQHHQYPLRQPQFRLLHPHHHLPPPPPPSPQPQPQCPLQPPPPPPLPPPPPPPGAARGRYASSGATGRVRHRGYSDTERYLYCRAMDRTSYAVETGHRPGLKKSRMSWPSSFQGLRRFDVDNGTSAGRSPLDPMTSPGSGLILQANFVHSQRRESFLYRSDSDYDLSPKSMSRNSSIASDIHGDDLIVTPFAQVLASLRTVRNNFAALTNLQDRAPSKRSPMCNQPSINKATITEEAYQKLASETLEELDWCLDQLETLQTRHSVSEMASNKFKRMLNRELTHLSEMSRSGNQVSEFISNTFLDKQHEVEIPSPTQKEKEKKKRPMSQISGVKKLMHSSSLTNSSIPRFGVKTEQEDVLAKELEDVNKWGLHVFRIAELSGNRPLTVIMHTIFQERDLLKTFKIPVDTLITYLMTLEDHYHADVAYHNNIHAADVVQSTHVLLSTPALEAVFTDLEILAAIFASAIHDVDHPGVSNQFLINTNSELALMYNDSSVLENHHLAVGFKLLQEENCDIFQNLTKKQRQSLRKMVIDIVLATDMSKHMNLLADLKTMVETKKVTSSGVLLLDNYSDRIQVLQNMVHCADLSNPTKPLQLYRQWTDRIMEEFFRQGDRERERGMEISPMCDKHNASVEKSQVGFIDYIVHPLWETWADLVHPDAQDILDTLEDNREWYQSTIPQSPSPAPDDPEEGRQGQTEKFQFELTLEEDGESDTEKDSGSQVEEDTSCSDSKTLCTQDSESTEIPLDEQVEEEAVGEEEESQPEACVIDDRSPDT

**Q.** `COc1cc([C@H]2c3c(cc(OC)c(O)c3OC)C[C@@H](CO)[C@@H]2CO[C@@H]2OC[C@@H](O)[C@H](O)[C@H]2O)cc(OC)c1O` [LYONISIDE] was tested. Which IC50 [1] did it give?
**A.** > 20 µM

**Q.** For `COc1cc([C@@H]2Oc3c(OC)cc(CCCO)cc3[C@H]2CO[C@@H]2OC[C@@H](O)[C@H](O)[C@H]2O)ccc1O`, which IC50 [1] is on record?
**A.** > 20 µM

**Q.** Which IC50 [1] does the source give for `COc1cc([C@H]2Oc3c(OC)cc(CCCO)cc3[C@@H]2CO[C@@H]2OC[C@@H](O)[C@H](O)[C@H]2O)ccc1O` here?
**A.** > 20 µM

**Q.** How did the IC50 [1] turn out when `COc1cc(CCCO)cc(OC)c1O` was run?
**A.** > 20 µM

**Q.** `CC1=CC(=O)CC(C)(C)[C@]1(O)/C=C/[C@@H](C)O` was tested. Which IC50 [1] did it give?
**A.** > 20 µM

**Q.** `COc1cc([C@H]2c3cc(O)c(OC)cc3C[C@@H](CO)[C@@H]2CO[C@@H]2OC[C@@H](O)[C@H](O)[C@H]2O)ccc1O` was tested. Which IC50 [1] did it give?
**A.** > 20 µM

**Q.** For `C=C1CC[C@]2(C(=O)O)CC[C@]3(C)C(=CC[C@@H]4[C@@]5(C)C[C@@H](O)[C@@H](OC(=O)/C=C\c6ccc(O)cc6)C(C)(C)[C@@H]5CC[C@]43C)[C@@H]2[C@H]1C`, which IC50 [1] is on record?
**A.** 0.542 µM

**Q.** Which results are given for `C=C1CC[C@]2(C(=O)O)CC[C@]3(C)C(=CC[C@@H]4[C@@]5(C)C[C@@H](O)[C@@H](OC(=O)/C=C/c6ccc(O)cc6)C(C)(C)[C@@H]5CC[C@]43C)[C@@H]2[C@H]1C`?
**A.** IC50 [2]: 2.63 µM; Ratio IC50 (Homo sapiens [3]): 20; Ratio IC50 (Homo sapiens [4]): 16; Ratio IC50 (Homo sapiens [5]): 11; IC50 [6]: > 50 µM; IC50 [7]: 4.83 µM; Ratio IC50 (Homo sapiens [8]): > 204; IC50 [9]: 3.81 µM; IC50 [1]: 0.245 µM; Ratio IC50 (Homo sapiens [10]): > 82; IC50 [11]: > 20 µM

**Q.** With `C=C1CC[C@]2(C(=O)O)CC[C@]3(C)C(=CC[C@@H]4[C@@]5(C)C[C@@H](O)[C@@H](O)C(C)(C)[C@@H]5CC[C@]43C)[C@@H]2[C@H]1C` as the compound, how does the IC50 [1] read?
**A.** > 20 µM
